Read-outs that look alike come from different tables or passages of the source.
What was measured:
[1] = tested on: NNRTI-binding pocket (NNIBP) of HIV-1 RT; set-up: method as in PMID 24002095; conditions: cited from earlier work
recombinant WT HIV-1 RT = biological target: T1, recombinant WT HIV-1 RT (Human immunodeficiency virus type 1 group M subtype B, UniProt P03367); assay: biochemical; conditions: for IC50: RT Inhibition—IC50 ± SEM, WT, WT RT DDDP activity, PicoGreen or 33P radiolabeled assay, value not marked as PicoGreen, n ≥ 2; for Ligand efficiency (LE): binding to WT RT, LE = −1.4(logIC50)/N
T1 construct: The p66/p51 HIV-1 RT heterodimer engineered with a N-terminal histidine tag; His tag (histidine tag) (N); made in house; host or cells: Escherichia coli strain M15 (vector pRT6H-PR)
Protocol: (§1) The inhibitory activity of all compounds was evaluated in vitro in assays that measure the DNA-dependent DNA polymerase (DDDP) activity of HIV-1 RT. Compounds were tested against recombinant WT and drug-resistant HIV-1 RT mutants (K103N, Y181C or K103N/Y181C). […] The IC50 value of nevirapine was determined in parallel to control for the performance of the assay. […] These RT mutations either reduce the rate of entry of NNRTIs to the binding pocket (K103N) or remove aromatic interactions that favor binding (Y181C). Initially, compound IC50 values were determined in an assay that quantifies DDDP activity mediated by HIV-1 RT using a radiolabeled ^33PdTTP substrate and more recently using a nonradioactive PicoGreen-based spectrophotometric assay.
(§2) Recombinant HIV-1 RT: The p66/p51 HIV-1 RT heterodimer engineered with a N-terminal histidine tag was expressed from the pRT6H-PR vector (provided by Nicolas Sluis-Cremer) which is based on pRT6H-PROT [37], except that the RT coding region is derived from the infectious molecular clone xxLAI [38]. This xxLAI clone contains the HIV-1LAI backbone and is engineered with silent mutations introducing Xma I and Xba I sites in the RT coding region at nucleotide positions 40–45 and 1470 to 1475, respectively. pRT6H-PR expressing the NNRTI drug-resistant mutations K103N, Y181C and K103N/Y181C were generated by subcloning Xma I/Xba I fragments in xxLAI harboring the desired NNRTI mutations (Giacobbi NS and Sluis-Cremer 2017 AAC) into the corresponding restriction sites in the RT coding region of p6HRT-PR. RT was expressed in Escherichia coli strain M15 and purified using Ni-NTA chromatography as previously described. RT concentrations were determined spectrophotometrically at 280 nm using an extinction coefficient (e280) of 260, 450 M^−1 cm^−1.
(§3) Nevirapine was included in assays as a positive control for inhibiting RT polymerase activity. The DDDP assay was performed by first adding 25 ng of HIV-1 RT to test compound in 96-well plates followed by initiating RT polymerase activity by adding 200 ng of activated calf thymus (ACT) DNA (Sigma Aldrich), 0.2 µCi ^33P-α-dTTP (Perkin Elmer), 50 mM Tris-HCl pH 7.8 50 mM KCl, […], 50 µM dNTP mix (Bioline), 0.1 mg/mL bovine serum albumin (New England Biolabs), 0.01% IGEPAL (Sigma) and 1 mM dithiothreitol. Reactions contained 2.5% dimethyl sulfoxide (DMSO). Following incubation at 37 °C for 10 min, samples from duplicate wells were applied to Whatman DE81 ion-exchange paper (GE Healthcare); dried membranes were washed in 2X saline-sodium citrate (SSC) buffer; and incorporated counts were quantified using an FLP-2000 phosphorimager (Fujifilm) or Typhoon Trio Phosphorimager (GE Healthcare) as published. Dose–response curves were generated using PRISM GraphPad version 8 by plotting the log transformed drug concentrations against percentage inhibition of DDDP activity compared to the no drug control using non-linear regression analysis.
(§4) Non-radioactive DDDP Assay: DDDP assays were also performed using a PicoGreen based spectrophotometric assay to detect double-stranded DNA synthesized by recombinant HIV-1 RT [15]. Assays were performed as described for the […] DDDP assay except that instead of ACT, the reaction contained 40 nM of a template/primer comprising a 200 nt DNA template (5′-[…] […]-3′) annealed to a 18 nucleotide DNA primer (5′-[…]-3′), 50 mM Tris-HCl pH 7.8, 50 mM KCl, 10 mM MgCl2 and 50 µM dNTP mix.

[2] = biological target: T2, His-tagged HIV-1 RT K103N (Human immunodeficiency virus type 1 group M subtype B, UniProt P03367, K702N); assay: Surface plasmon resonance, K103N RT; conditions: ± standard error of dose–response fit, n = 1; NB = no binding observed; read-out: SPR—KD, K103N
T2 construct: The p66/p51 HIV-1 RT heterodimer engineered with a N-terminal histidine tag; His tag (histidine tag) (N); made in house; host or cells: Escherichia coli strain M15 (vector pRT6H-PR)
Protocol: (§5) Compound binding to recombinant HIV-1 RT was measured by surface plasmon resonance (SPR). SPR is an optical biosensor detection method that involves passing an analyte (often a fragment) in a buffer solution over a gold surface chip with an immobilized protein (RT enzyme) and detecting the change in plasmon resonance angle which is dependent on the refractive index of the medium near the surface. As compounds bind to the target protein, the refractive index changes proportionally to the extent of binding. This can then be used to measure the association and dissociation kinetics of binding as well as the compound’s affinity for binding.
(§6) SPR assays were performed on a Biacore S200 (GE Healthcare). His-tagged RT (WT, K103N, Y181C or K103N/Y181C) was immobilized on the surface of a Biacore compatible NIHC 1500M (Xantec) chip according to manufacturer’s instructions. Following 3 injections 300 s each of 0.5 M EDTA, the chip surface was activated with a 120 s injection of 5 mM NiCl2 followed by a 2100 s injection of 130 nM RT. The final immobilization level of RT was typically 14,000–27,000 RU. SPR experiments were carried out at 25 °C using a flow rate of 50 µL/min in running buffer. The running buffer was 1.053 × (HBS pH 7.4 + 50 µM EDTA + 0.005% Tween-20). Compounds were provided as 200 mM stocks and diluted in running buffer to obtain the concentrations required for dose-response studies (0, 6.25, 12.5, 25, 50, 100 and 200 µM). Raw sensorgram data were analyzed using Biacore S200 Evaluation Software. Dose-response determinations were evaluated using a 1:1 binding model. KD values were determined by Biacore S200 Evaluation Software Version 1.0. assuming 1:1 binding. For compounds approaching saturation, Rmax was floated. For compounds with insufficient curvature, Rmax was fixed based on a control. Errors were determined as the standard error in the dose-response fit, as calculated by Biacore S200 Evaluation Software.

His-tagged HIV-1 RT WT = biological target: T3, His-tagged HIV-1 RT WT (Human immunodeficiency virus type 1 group M subtype B, UniProt P03367); assay: Surface plasmon resonance, WT RT; format: binding
T3 construct: The p66/p51 HIV-1 RT heterodimer engineered with a N-terminal histidine tag; His tag (histidine tag) (N); made in house; host or cells: Escherichia coli strain M15 (vector pRT6H-PR)
Protocol: as §5, §6

HIV-1 RT K103N mutant = biological target: T4, HIV-1 RT K103N mutant (Human immunodeficiency virus type 1 group M subtype B, UniProt P03367, K702N); assay: DDDP activity assay, K103N RT mutant; format: biochemical; conditions: PicoGreen or 33P radiolabeled assay, n ≥ 2, read-out: RT Inhibition—IC50 ± SEM, K103N
T4 construct: The p66/p51 HIV-1 RT heterodimer engineered with a N-terminal histidine tag; His tag (histidine tag) (N); made in house; host or cells: Escherichia coli strain M15 (vector pRT6H-PR)
Protocol: as §1
Recombinant HIV-1 RT: The p66/p51 HIV-1 RT heterodimer engineered with a N-terminal histidine tag was expressed from the pRT6H-PR vector (provided by Nicolas Sluis-Cremer) which is based on pRT6H-PROT [37], except that the RT coding region is derived from the infectious molecular clone xxLAI [38]. […] RT concentrations were determined spectrophotometrically at 280 nm using an extinction coefficient (e280) of 260, 450 M^−1 cm^−1. […]

HIV-1 RT Y181C mutant = biological target: T5, HIV-1 RT Y181C mutant (Human immunodeficiency virus type 1 group M subtype B, UniProt P03367, Y780C); assay: DDDP activity assay, Y181C RT mutant; format: biochemical; conditions: PicoGreen or 33P radiolabeled assay, n ≥ 2, read-out: RT Inhibition—IC50 ± SEM, Y181C
T5 construct: The p66/p51 HIV-1 RT heterodimer engineered with a N-terminal histidine tag; His tag (histidine tag) (N); made in house; host or cells: Escherichia coli strain M15 (vector pRT6H-PR)
Protocol: as §1
Recombinant HIV-1 RT: The p66/p51 HIV-1 RT heterodimer engineered with a N-terminal histidine tag was expressed from the pRT6H-PR vector (provided by Nicolas Sluis-Cremer) which is based on pRT6H-PROT [37], except that the RT coding region is derived from the infectious molecular clone xxLAI [38]. […] RT concentrations were determined spectrophotometrically at 280 nm using an extinction coefficient (e280) of 260, 450 M^−1 cm^−1.
Nevirapine was included in assays as a positive control for inhibiting RT polymerase activity. […] Following incubation at 37 °C for 10 min, samples from duplicate wells were applied to Whatman DE81 ion-exchange paper (GE Healthcare); dried membranes were washed in 2X saline-sodium citrate (SSC) buffer; and incorporated counts were quantified using an FLP-2000 phosphorimager (Fujifilm) or Typhoon Trio Phosphorimager (GE Healthcare) as published. […]

[3] = biological target: T6, His-tagged HIV-1 RT Y181C (Human immunodeficiency virus type 1 group M subtype B, UniProt P03367, Y780C); assay: Surface plasmon resonance, Y181C RT; conditions: ± standard error of dose–response fit, n = 1; NB = no binding observed; read-out: SPR—KD, Y181C
T6 construct: The p66/p51 HIV-1 RT heterodimer engineered with a N-terminal histidine tag; His tag (histidine tag) (N); made in house; host or cells: Escherichia coli strain M15 (vector pRT6H-PR)
Protocol: as §5
(§7) SPR assays were performed on a Biacore S200 (GE Healthcare). His-tagged RT (WT, K103N, Y181C or K103N/Y181C) was immobilized on the surface of a Biacore compatible NIHC 1500M (Xantec) chip according to manufacturer’s instructions. Following 3 injections 300 s each of 0.5 M EDTA, the chip surface was activated with a 120 s injection of 5 mM NiCl2 followed by a 2100 s injection of 130 nM RT. […] Raw sensorgram data were analyzed using Biacore S200 Evaluation Software. Dose-response determinations were evaluated using a 1:1 binding model. KD values were determined by Biacore S200 Evaluation Software Version 1.0. assuming 1:1 binding. […] Errors were determined as the standard error in the dose-response fit, as calculated by Biacore S200 Evaluation Software.

[4] = biological target: T7, His-tagged HIV-1 RT K103N/Y181C (Human immunodeficiency virus type 1 group M subtype B, UniProt P03367, K702N/Y780C); assay: Surface plasmon resonance, K103N/Y181C RT; format: binding
T7 construct: The p66/p51 HIV-1 RT heterodimer engineered with a N-terminal histidine tag; His tag (histidine tag) (N); made in house; host or cells: Escherichia coli strain M15 (vector pRT6H-PR)
Protocol: as §5, §7

[5] = tested on: His-tagged HIV-1 RT K103N/Y181C; assay: Surface plasmon resonance, K103N/Y181C RT; format: binding; conditions: SPR
Protocol: as §5, §7

[6] = tested on: HIV-1 RT K103N/Y181C mutant; assay: DDDP activity assay, K103N/Y181C RT mutant; format: biochemical; conditions: nonsignificant
Protocol: as §1, §2, §3, §4

[7] = biological target: T8, HIV-1 RT K103N/Y181C mutant (Human immunodeficiency virus type 1 group M subtype B, UniProt P03367, K702N/Y780C); assay: DDDP activity assay, K103N/Y181C RT mutant; format: biochemical
T8 construct: The p66/p51 HIV-1 RT heterodimer engineered with a N-terminal histidine tag; His tag (histidine tag) (N); made in house; host or cells: Escherichia coli strain M15 (vector pRT6H-PR)
Protocol: as §1, §2, §3, §4

[8] = tested on: HIV-1 RT (WT RT construct RT35A); conditions: assay detects inhibition of both DNA polymerase and RNase H activity; read-out: IC50 (Bauman et al.); cited from earlier work

| SMILES | IC50 (recombinant WT HIV-1 RT) [µM] | Ligand efficiency (LE) (recombinant WT HIV-1 RT) [kcal/mol/HA] | Kd [2] [µM] | Kd (His-tagged HIV-1 RT WT) [µM] | Kd [3] [µM] | IC50 [7] [µM] | further results |
| --- | --- | --- | --- | --- | --- | --- | --- |
| Cc1cc(/C=C/C#N)cc(C)c1Nc1ccnc(Nc2ccc(C#N)cc2)n1 [Rilpivirine, rilpivirine] | – | – | – | – | – | – | affinity for the NNIBP [1]: 0.73 nM |
| CCOC(=O)c1cnn2cccc(Br)c12 [compound 6, Ethyl 4-Bromopyrazolo[1,5-a]pyridine-3-carboxylate] | 159 ± 29 | 0.35 | 1400 ± 45 | 598 ± 15 | 1190 ± 47 | – | IC50 (HIV-1 RT K103N mutant): 846 ± 42 µM; IC50 (HIV-1 RT Y181C mutant): 850 ± 187 µM |
| CCOC(=O)c1cnn2ccc(N)cc12 [compound 8, Ethyl 5-Aminopyrazolo[1,5-a]pyridine-3-carboxylate] | > 1000 | – | 621 ± 36 | 522 ± 27 | 610 ± 32 | – | – |
| CCOC(=O)c1cnn2cccc(C#CC3CC3)c12 [compound 27, Ethyl 4-(Cyclopropylethynyl)pyrazolo[1,5-a]pyridine-3-carboxylate] | 11 ± 1 | 0.37 | 187 ± 15 | 79 ± 7 | – | 34 ± 8 | fold improvement on parent compound B-1 (recombinant WT HIV-1 RT; IC50 vs B-1 IC50 >1000 μM in the radioactive RT assay): > 20 fold; Kd [4]: 187 ± 15 µM; fold decrease in binding, K103N/Y181C double mutant vs WT [5]: 2–3 fold; fold decrease in susceptibility, K103N/Y181C mutant compared to WT RT [6]: 3.0 fold |
| CCOC(=O)c1cnn2ccccc12 [compound B-1, ethyl pyrazolo[1,5-a]pyridine-3-carboxylate, reference compound] | – | – | – | – | – | 208 | Kd (His-tagged HIV-1 RT WT; read-out: SPR—KD, WT, ± standard error of dose–response fit, n = 1, NB = no binding observed): > 200 µM; IC50 [8]: 350 µM |

Reference: publication PMC10095864, “Targeting HIV-1 Reverse Transcriptase Using a Fragment-Based Approach” (Molecules, 2023)
